The values below come from ChEMBL document CHEMBL1221220, “Transport and signaling via the amino acid binding site of the yeast Gap1 amino acid transceptor” (Nat Chem Biol, 2009).

The target of assay [1] is T1, General amino-acid permease GAP1 (Saccharomyces cerevisiae) (UniProt P19145).
T1 sequence (whole entry): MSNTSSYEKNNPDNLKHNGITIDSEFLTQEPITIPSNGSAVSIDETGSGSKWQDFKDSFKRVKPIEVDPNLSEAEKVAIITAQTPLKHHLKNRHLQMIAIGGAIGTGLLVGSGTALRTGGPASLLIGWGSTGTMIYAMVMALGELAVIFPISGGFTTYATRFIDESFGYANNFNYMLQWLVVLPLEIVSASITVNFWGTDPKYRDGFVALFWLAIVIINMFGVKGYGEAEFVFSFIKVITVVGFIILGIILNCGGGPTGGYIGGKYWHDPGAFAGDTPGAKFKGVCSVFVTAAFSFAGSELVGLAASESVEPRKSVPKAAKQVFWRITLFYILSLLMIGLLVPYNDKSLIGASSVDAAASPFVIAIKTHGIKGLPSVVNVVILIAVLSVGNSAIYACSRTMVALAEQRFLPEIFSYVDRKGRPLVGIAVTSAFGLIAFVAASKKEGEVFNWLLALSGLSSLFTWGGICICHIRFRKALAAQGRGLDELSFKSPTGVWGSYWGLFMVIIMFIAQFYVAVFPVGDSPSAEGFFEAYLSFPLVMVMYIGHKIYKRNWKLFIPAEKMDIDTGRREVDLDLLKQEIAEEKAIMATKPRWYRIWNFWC
The experiment in a line: Induction of nitrogen-starved wild type sigma1278b yeast Gap1-mediated trehalase activation at 2 mM in presence of 10 mM MTSEA treated before compound addition.

Assay [2] concerns T2, General amino-acid permease GAP1 (Saccharomyces cerevisiae), P19145 [L383C].
T2 sequence (whole entry): T1 sequence (whole entry) with L383C
The experiment in a line: Induction of yeast Gap1 L383C mutant-mediated trehalose activation at 2 mM in presence of 10 mM MTSEA treated before compound addition.

Assay [3] shares this test system. Nature of the assay: Induction of yeast Gap1 L383C mutant-mediated trehalose activation at 10 mM.
The test system of assay [4] is T3, General amino-acid permease GAP1 (Saccharomyces cerevisiae), P19145 [I382C].
T3 sequence (whole entry): T1 sequence (whole entry) with I382C
Nature of the assay: Induction of yeast Gap1 I382C mutant-mediated trehalose activation at 2 mM in presence of 10 mM MTSEA treated before compound addition.

For assay [5], the target named is T1, General amino-acid permease GAP1 (Saccharomyces cerevisiae). Nature of the assay: Induction of nitrogen-starved wild type sigma1278b yeast Gap1-mediated amino acid uptake at 2 mM in presence of 10 mM MTSEA treated before compound addition.
The test system of assay [6] is T4, General amino-acid permease GAP1 (Saccharomyces cerevisiae), P19145 [A385C].
T4 sequence (whole entry): T1 sequence (whole entry) with A385C
The experiment in a line: Activation of yeast Gap1 A385C mutant-mediated amino acid uptake at 10 mM.

Substitutions are numbered along the chain they refer to. Calls of active or inactive are those of the source. The calls are words filed in the database; no cut-off is given here.

`NC(=O)NCCC[C@H](N)C(=O)O`: the inhibition result in assay [1], in assay [2], in assay [4] and in assay [5] was “Active” throughout. Moreover, the outcome in assay [3] and in assay [6] was inactive.
